Source: US7763600B2, “Hormone-based nitrogen monoxide donor compounds and use thereof in obstetrics and gynecology” (EFFIK, priority 2002, dated 2010)

Test system: human myometreal fragments
Assay: Inhibition in vitro of the uterine contractility of myometreal fibers from uteruses of women who are not pregnant
Type: cell-based
Conditions: for Inhibition as % (Mean): spontaneous contractions
From the text: Inhibition In Vitro of the Uterine Contractility of Myometreal Fibers from Uteruses of Women Who are Not Pregnant
The contractile activity of human myometreal fragments was studied in vitro.
After a lag time of approximately two hours, allowing the establishment of spontaneous contractions, the inhibition of the contractions, produced by addition to the medium of 17α-hydroxyprogesterone and of its nitro derivative, 17α-hydroxypregn-4-ene-3,20-dione (4′-nitro-oxymethyl)benzoate, identified in this table under the name 17α-hydroxypregn-4-ene-3,20-dione (4′-nitro-oxymethyl)benzoate (example 4), could be measured.
This experiment makes it possible to evaluate the short-term effect of this compound.

Row | Structure (SMILES) | Activity on contractions compared with hydroxyprogesterone (on average, action much more constant, less variable) | Inhibition as % (Mean) (concentration 2 × 10^−6 M) [%] | Inhibition as % (Mean) (concentration 2 × 10^−7 M) [%]
1 | CC(=O)[C@@]1(OC(=O)c2ccc(CO[N+](=O)[O-])cc2)CC[C@H]2[C@@H]3CCC4=CC(=O)CC[C@]4(C)[C@H]3CC[C@@]21C [17α-hydroxypregn-4-ene-3,20-dione (4′-nitrooxymethyl)benzoate] | the same activity as hydroxyprogesterone | 69 | 37
2 | CC(=O)[C@@]1(O)CC[C@H]2[C@@H]3CCC4=CC(=O)CC[C@]4(C)[C@H]3CC[C@@]21C [17α-hydroxyprogesterone, reference compound] |  | 66 | 45
